{
  "source": "patent US20040009921A1",
  "about": "“Methods and compositions for the treatment of cancer” (Allergan, Inc., priority 2002, published 2004)",
  "key": {"β-catenin [1]": {"test_system": "β-catenin", "assay": "Western blotting of β-catenin protein in HEK293 cells and stable lines RBC, CAT, RmBC", "assay_type": "cell-based, human", "method": "(§1) (A) Western blotting analysis of HEK293 cells transfected with a combination of expression vectors for LacZ (2 μg), V5-tagged β-catenin(4 μg), and Flag-tagged RXRα (2 μg) as indicated below the gels. […] RXRα protein was measured using an HRP-conjugated mouse monoclonal antibody against the Flag tag. (B) Western blotting analysis of stable cell line RBC that overexpresses both β-catenin and RXRα. […] (C) Western blotting analysis of stable cell line CAT that overexpresses only β-catenin. […] Endogenous and overexpressed β-catenin were detected using a rabbit polyclonal antibody as indicated by “Total” whereas overexpressed β-catenin was analyzed using a mouse monoclonal antibody against the V5 tag. Endogenous and overexpressed RXRα were detected by a rabbit polyclonal antibody against RXRα, whereas overexpressed RXRα was determined by an HRP-conjugated mouse monoclonal antibody against the Flag tag. (D) Western blotting analysis of HEK293 cells transfected with a fixed amount of β-catenin (4 μg) plus an increasing amount of RXRα as indicated at the top. […] (E) Western blotting analysis of HEK293, CV-1, and Hela cells transfected with 2 μg of RXRα and 4 μg of wild type or mutant β-catenin. α. […] (F) Northern blotting analysis of RBC cells using β-catenin as a probe.\nFIG. 4 Receptor and ligand specificity in degradation of β-catenin by retinoid receptors. HEK293 cells transfected with expression vectors for β-catenin (4 μg) and RXRs (2 μg) or RARs (2 μg) and treated with ligands at concentrations indicated at the top of each gel. Protein levels were detected by Western blotting as shown in this figure. β-catenin and RARs were detected by HRP-conjugated antibodies against their V5 tag. RXRs were detected by HRP-conjugated antibodies against their Flag tag. […] In this experiment, the amount of expression vectors for RXRα and RARs used in transfection was 1 μg.\nHEK293 cells were seeded at a density of […] per dish were seeded into 100-mm dishes and cultured overnight in DMEM containing 10% FBS. Cells were transfected with 1-4 μg of various cDNA or parental expression vectors (8 μg of DNA in total) using Lipofectamine®. Five hours after transfection, cells were fed with fresh culture media DMEM containing 10% charcoal-treated FBS with vehicle DMSO or retinoids prepared in DMSO. After a given time of treatment, cells were harvested and lysed in a buffer containing 1% Nonidet® P-40, 30 mM Tris-HCl (pH7.4), 0.5 mM EDTA (pH 8.0), 150 mM NaCl, 10% glycerol, 1 mM sodium orthovanadate, 40 mM NaF, 0.5 mM phenylmethylsulfonyl fluoride (PMSF) and a cocktail of protease inhibitors (Merck).\nTotal cell lysates were homogenized by passing through a QIAshredder® (Qiagen) and cleared from insoluble materials by centriftigation at 12,000 g. Protein concentration was determined using a Bradford total protein assay kit (Bio-Rad). Total cell lysates were electrophoresed using a 4-12% SDS-PAGE gradient gel and transferred to either nitrocellulose or PVDF filter membranes. The membranes were blocked with 10% non-fat milk reconstituted from dairy milk powder in phosphate-buffered saline (PBS) containing 0.1% Tween®-20 (PBST). The membranes were incubated with primary antibodies at room temperature for 2 hours or at 4° C. for overnight. After the removal of unbound antibodies, membranes were incubated with horseradish peroxidase-conjugated secondary antibodies for one hour at room temperature and washed five times with PBST."}, "β-catenin [2]": {"test_system": "β-catenin", "assay": "Western blotting of β-catenin in CV-1 and Hela cells", "assay_type": "cell-based", "settings": "CV1 and Hela cells, 0.1 μM, 17 hours"}, "β-catenin mRNA": {"test_system": "β-catenin mRNA", "assay": "Northern blotting of β-catenin mRNA in RBC cells", "assay_type": "cell-based, human", "settings": "RBC cells treated overnight (17 hours)", "method": "as §1"}, "[3]": {"biological_target": "T1, RXRα and ΔNβ-catenin interaction (Homo sapiens, UniProt P19793)", "T1 sequence (P19793 1-462)": "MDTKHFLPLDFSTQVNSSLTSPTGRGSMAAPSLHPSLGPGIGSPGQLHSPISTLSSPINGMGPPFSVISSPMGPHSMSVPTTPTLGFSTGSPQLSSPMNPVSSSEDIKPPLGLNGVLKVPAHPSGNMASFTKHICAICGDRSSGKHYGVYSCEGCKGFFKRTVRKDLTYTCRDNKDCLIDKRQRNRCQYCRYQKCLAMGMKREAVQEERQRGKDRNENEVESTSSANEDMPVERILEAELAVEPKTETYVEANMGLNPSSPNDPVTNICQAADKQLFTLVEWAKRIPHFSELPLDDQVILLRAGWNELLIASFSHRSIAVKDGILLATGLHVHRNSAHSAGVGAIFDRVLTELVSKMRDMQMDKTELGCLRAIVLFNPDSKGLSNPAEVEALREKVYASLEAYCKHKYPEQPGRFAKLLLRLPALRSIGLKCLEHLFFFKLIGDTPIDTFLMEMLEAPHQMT", "T1 sequence (P35222 51-781 partner)": "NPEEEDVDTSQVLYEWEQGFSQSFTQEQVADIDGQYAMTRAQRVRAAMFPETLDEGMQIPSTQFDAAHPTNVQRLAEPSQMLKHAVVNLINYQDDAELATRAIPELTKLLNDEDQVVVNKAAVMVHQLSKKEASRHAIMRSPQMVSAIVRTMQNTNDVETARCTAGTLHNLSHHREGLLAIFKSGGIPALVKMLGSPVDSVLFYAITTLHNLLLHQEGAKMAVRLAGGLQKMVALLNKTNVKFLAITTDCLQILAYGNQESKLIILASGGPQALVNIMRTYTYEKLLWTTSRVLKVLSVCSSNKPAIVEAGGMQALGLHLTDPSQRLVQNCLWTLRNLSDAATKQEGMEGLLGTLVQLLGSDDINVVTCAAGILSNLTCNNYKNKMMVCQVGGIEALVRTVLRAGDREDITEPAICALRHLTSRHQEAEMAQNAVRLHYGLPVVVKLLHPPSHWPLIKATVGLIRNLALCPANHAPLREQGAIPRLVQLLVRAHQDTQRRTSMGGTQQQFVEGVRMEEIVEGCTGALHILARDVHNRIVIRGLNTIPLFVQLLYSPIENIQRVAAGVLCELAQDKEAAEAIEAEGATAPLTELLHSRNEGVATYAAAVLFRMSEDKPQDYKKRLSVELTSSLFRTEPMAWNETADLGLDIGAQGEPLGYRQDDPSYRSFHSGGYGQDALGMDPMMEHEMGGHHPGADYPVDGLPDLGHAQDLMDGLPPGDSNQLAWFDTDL", "assay": "In vivo protein crosslinking and immunoprecipitation", "assay_type": "cell-based", "settings": "HEK293, 1 μM AGN 4204 or vehicle before DSP crosslinking", "protocol": "HEK293 cells were transfected with a combination of 8 μg of ΔNβ-catenin (C) and 4 μg of RXRα. […] Cell lysates were subjected to immunoprecipitation using antibodies against the Flag tag in RXRα. Crosslinked molecules in immunoprecipitates were dissociated by reduction with β-mercaptoethanol before Western blotting analysis using HRP-conjugated antibodies against the v5 tag in ΔNβ-catenin (Top panel).\nHEK293 cells were cultured to about 80% confluence in 150-mm Biocoat poly-D-Lysine plates (VWR Cat#354550), and then transfected with expression vectors for ΔN-β-catenin, and RXRα using Lipofectamine® Transfection Reagent (Invitrogen). Cells were then cultured in high glucose DMEM medium containing 10% activated charcoal-extracted fetal bovine serum.\nThe reaction was quenched by adding Tris buffer at pH7.5 to a final concentration of 20 mM. […]\nTo determine whether RXRs and β-catenin interact with each other, HEK293 cells were transfected with expression vectors for RXRα and/or ΔNβ-catenin. […] After completion of the cross-linking reaction, cell extracts were prepared and analyzed by immunoprecipitation using antibodies against the FLAG epitope in an RXRα-FLAG fusion protein, followed by Western blotting analysis using antibodies against the V5 Tag in ΔNβ-catenin. […]"}},
  "data": [
    {"smiles": "CC(/C=C/[C@@H]1C[C@]1(C)c1ccc2c(c1)C(C)(C)CCC2(C)C)=C\\C(=O)O", "note": "[AGN 4204]", "values": [
      {"measurement": "β-catenin protein", "setting": "β-catenin [1]; CAT cells transfected with RXRα expression vector, 0.1 μM, 17 hours", "value": "significantly reduced"},
      {"measurement": "β-catenin protein", "setting": "β-catenin [1]; CAT cells, low endogenous RXRα, 0.1 μM, 17 hours", "value": "did not cause a significant decrease of β-catenin"},
      {"measurement": "β-catenin protein", "setting": "β-catenin [1]; HEK293, fixed β-catenin plus increasing amounts of RXRα vector, 0.1 μM, 17 hours", "value": "a proportional decrease in β-catenin"},
      {"measurement": "intracellular β-catenin protein levels", "setting": "β-catenin [1]; HEK293, β-catenin alone overexpressed, 0.1 μM, 6 or 15 hours", "value": "no significant effects"},
      {"measurement": "degradation of β-catenin", "setting": "β-catenin [1]; HEK293 co-expressing RXRα with RARα", "value": "RXR-ligand-dependent degradation"},
      {"measurement": "amounts of β-catenin protein", "setting": "β-catenin [1]; HEK293 co-overexpressing β-catenin and RXR, 0.1 μM, 6 or 15 hours", "value": "a reduction in the amounts of β-catenin protein"},
      {"measurement": "degradation of β-catenin", "setting": "β-catenin [1]; HEK293 overexpressing RARβ or RARγ", "value": "did not result in degradation of β-catenin"},
      {"measurement": "concentration effective in inducing degradation of β-catenin", "setting": "β-catenin [1]; HEK293 transfected with β-catenin and RXRα, 17 hours", "value": 1, "unit": "nM"},
      {"measurement": "degradation of β-catenin through RXRγ", "setting": "β-catenin [1]; HEK293 transfected with β-catenin and RXRγ", "value": "able to stimulated the degradation of β-catenin through RXRγ"},
      {"measurement": "AGN 4204-induced β-catenin degradation mediated by RXRα deletion mutants", "setting": "β-catenin [1]; HEK293 with β-catenin and RXRα mutants, 0.1 μM, 17 hours", "value": "significantly reduced"},
      {"measurement": "potency in inducing β-catenin degradation", "setting": "β-catenin [1]; HEK293 with β-catenin and RXRα, FIG. 4A", "value": "high potency"},
      {"measurement": "time at which beginning of β-catenin degradation was observed", "setting": "β-catenin [1]; RBC cells, 0.1 μM", "value": 6, "unit": "h"},
      {"measurement": "degradation of ΔNβ-catenin protein", "setting": "β-catenin [1]; transiently transfected HEK293 and stable line RmBC (ΔNβ-catenin and RXRα), 0.1 μM", "value": "degradation of αNβ-catenin was observed"},
      {"measurement": "degradation of ΔNβ-catenin protein", "setting": "β-catenin [2]", "value": "susceptible to RXR-mediated degradation"},
      {"measurement": "β-catenin mRNA level", "setting": "β-catenin mRNA", "value": "no effects"},
      {"measurement": "interaction between RXRα and ΔNβ-catenin (co-immunoprecipitation)", "setting": "[3]", "value": "ligand-independent"}
    ]}
  ]
}
